Values after ≈ are worked out from the molar mass of the structure shown. Where two headings read alike, the source gives them in different places.
Tests used:
Experiment in all cases: MIC in agar plate culture-dilution assay
Type in all cases: cell-based
[1] = test system: Pseudomonas maltophilia M-0627; details: Stenotrophomonas maltophilia, M0627
From the text: (§1) The compounds of the formula (I) and salts thereof of the present invention are new, and have high and broad antibacterial activity capable of inhibiting the growth of pathogenic microorganisms of a broad range including gram-positive and gram-negative bacteria. In order to show the usability of the compounds of the formula (I), the antibacterial activity of some typical compounds of the formula (I) was actually measured, and the results are given in the following Table-1.
(§2) MIC in agar plate culture-dilution assay (Y/ml)

[2] = test system: Klebsiella pneumoniae GN-69; details: GN69
From the text: as §1, §2

Proteus rettgeri GN-624 = details: Providencia rettgeri, GN624
From the text: as §1, §2

Proteus vulgaris GN-76 = details: GN76
From the text: as §1, §2

[3] = test system: Bacillus subtilis ATCC 6633; details: ATCC6633
From the text: as §1, §2

[4] = test system: Pseudomonas aeruginosa E-2; details: E2
From the text: as §1, §2

[5] = test system: Escherichia coli NIHJ JC-2; details: NIHJJC2
From the text: as §1, §2

[6] = test system: Enterobacter cloacae GN-7471; details: GN7471
From the text: as §1, §2

[7] = test system: Staphylococcus aureus 209P JC-1
From the text: as §1, §2

[8] = test system: Pseudomonas aeruginosa M-0148; details: M0148
From the text: as §1, §2

[9] = test system: Citrobacter freundii GN-346; details: GN346
From the text: as §1, §2

[10] = test system: Pseudomonas aeruginosa IAM-1007; details: IAM1007
From the text: as §1, §2

[11] = test system: Staphylococcus aureus Smith (1)
From the text: as §1, §2

[12] = test system: Serratia marcescens No. 1
From the text: as §1, §2

[13] = Pseudomonas maltophilia M-0627, agar plate culture-dilution, read-out: MIC
[14] = Klebsiella pneumoniae GN-69, agar plate culture-dilution, read-out: MIC
[15] = Proteus rettgeri GN-624, agar plate culture-dilution, read-out: MIC
[16] = Proteus vulgaris GN-76, agar plate culture-dilution, read-out: MIC
[17] = Bacillus subtilis ATCC 6633, agar plate culture-dilution, read-out: MIC
[18] = Pseudomonas aeruginosa E-2, agar plate culture-dilution, read-out: MIC
[19] = Enterobacter cloacae GN-7471, agar plate culture-dilution, read-out: MIC
[20] = Staphylococcus aureus 209P JC-1, agar plate culture-dilution, read-out: MIC
[21] = Pseudomonas aeruginosa M-0148, agar plate culture-dilution, read-out: MIC
[22] = Citrobacter freundii GN-346, agar plate culture-dilution, read-out: MIC
[23] = Pseudomonas aeruginosa IAM-1007, agar plate culture-dilution, read-out: MIC
[24] = Staphylococcus aureus Smith (1), agar plate culture-dilution, read-out: MIC
[25] = Serratia marcescens No. 1, agar plate culture-dilution, read-out: MIC

| Structure (SMILES) | MIC [1, 13] | MIC [2, 14] | MIC (Proteus rettgeri GN-624; [15]) | MIC (Proteus vulgaris GN-76; [16]) | MIC [3, 17] | MIC [4, 18] | MIC [5] | MIC [6, 19] | MIC [7, 20] | MIC [8, 21] | MIC [9, 22] | MIC [10, 23] | MIC [11, 24] | MIC [12, 25] | other results |
| --- | --- | --- | --- | --- | --- | --- | --- | --- | --- | --- | --- | --- | --- | --- | --- |
| C[n+]1ccc(SCC2=C(C(=O)[O-])N3C(=O)[C@@H](NC(=O)C(NC(=O)c4cc(=O)c(O)c[nH]4)c4csc(N)n4)[C@H]3SC2)cc1 (stereo partly drawn) [A, reference compound] | 50 µg/mL (≈ 79.4 µM) | 0.2 µg/mL (≈ 0.318 µM) | 1.56 µg/mL (≈ 2.48 µM) | 0.78 µg/mL (≈ 1.24 µM) | 1.56 µg/mL (≈ 2.48 µM) | 0.2 µg/mL (≈ 0.318 µM) | 0.1 µg/mL (≈ 0.159 µM) | 3.13 µg/mL (≈ 4.97 µM) | 0.78 µg/mL (≈ 1.24 µM) | 50 µg/mL (≈ 79.4 µM) | 0.39 µg/mL (≈ 0.619 µM) | 6.25 µg/mL (≈ 9.93 µM) | 0.78 µg/mL (≈ 1.24 µM) | 0.2 µg/mL (≈ 0.318 µM) |  |
| CC(C)(O/N=C(\C(=O)N[C@@H]1C(=O)N2C(C(=O)[O-])=C(C[n+]3ccccc3)CS[C@H]12)c1csc(N)n1)C(=O)O [B, ceftazidime, reference compound] |  |  |  |  |  |  | 0.2 µg/mL (≈ 0.366 µM) |  |  |  |  |  |  |  | MIC [1]: 50 µg/mL (≈ 91.5 µM); MIC ([2]; Klebsiella pneumoniae): 0.1 µg/mL (≈ 0.183 µM); MIC (Proteus rettgeri GN-624): 0.39 µg/mL (≈ 0.714 µM); MIC (Proteus vulgaris GN-76; Proteus vulgaris): 0.05 µg/mL (≈ 0.0915 µM); MIC ([3]; Bacillus subtilis): 6.25 µg/mL (≈ 11.4 µM); MIC ([4]; Pseudomonas aeruginosa): 1.56 µg/mL (≈ 2.85 µM); MIC ([6]; Enterobacter cloacae): 3.13 µg/mL (≈ 5.73 µM); MIC ([7]; Staphylococcus aureus, 209P): 3.13 µg/mL (≈ 5.73 µM); MIC ([8]; Pseudomonas aeruginosa): 3.13 µg/mL (≈ 5.73 µM); MIC ([9]; Citrobacter freundii): 0.78 µg/mL (≈ 1.43 µM); MIC ([10]; Pseudomonas aeruginosa): 1.56 µg/mL (≈ 2.85 µM); MIC ([11]; Staphylococcus aureus): 3.13 µg/mL (≈ 5.73 µM); MIC ([12]; Serratia marcescens, NO.1): < 0.025 µg/mL |
| C[n+]1ccc(SCC2=C(C(=O)[O-])N3C(=O)[C@@H](NC(=O)C(NC(=O)c4cc(=O)c(O)cn4O)c4csc(N)n4)[C@H]3SC2)c2c1CCC2 (stereo partly drawn) [Example 14, (6R,7R)7-[(RS)2-(2-Aminothiazol-4yl)-2-(1,5-dihydroxy-4-pyridone-2-carboxamido)acetamido]-3-(2,3-cyclopenteno-1-methylpyridinium-4-yl)-thiomethyl-ceph-3-em-4-carboxylate] | 6.25 µg/mL (≈ 9.11 µM) | < 0.025 µg/mL | 0.1 µg/mL (≈ 0.146 µM) | 0.1 µg/mL (≈ 0.146 µM) | 6.25 µg/mL (≈ 9.11 µM) | < 0.025 µg/mL | 0.05 µg/mL (≈ 0.0729 µM) | 0.78 µg/mL (≈ 1.14 µM) | 1.56 µg/mL (≈ 2.27 µM) | 0.2 µg/mL (≈ 0.292 µM) | 0.1 µg/mL (≈ 0.146 µM) | < 0.025 µg/mL | 1.56 µg/mL (≈ 2.27 µM) | 0.1 µg/mL (≈ 0.146 µM) |  |
| Nc1nc(C(NC(=O)c2cc(=O)c(O)cn2O)C(=O)N[C@@H]2C(=O)N3C(C(=O)O)=C(CSc4ccnc5c4CCC5)CS[C@H]23)cs1 (stereo partly drawn) [Example 15] | 0.78 µg/mL (≈ 1.16 µM) | 0.05 µg/mL (≈ 0.0744 µM) | 0.2 µg/mL (≈ 0.298 µM) | 0.1 µg/mL (≈ 0.149 µM) | 3.13 µg/mL (≈ 4.66 µM) | < 0.025 µg/mL | 0.1 µg/mL (≈ 0.149 µM) | 0.78 µg/mL (≈ 1.16 µM) | 1.56 µg/mL (≈ 2.32 µM) | 0.2 µg/mL (≈ 0.298 µM) | 0.2 µg/mL (≈ 0.298 µM) | 0.2 µg/mL (≈ 0.298 µM) | 3.13 µg/mL (≈ 4.66 µM) | 0.39 µg/mL (≈ 0.581 µM) |  |
| Nc1nc(C(NC(=O)c2cc(=O)c(O)cn2O)C(=O)N[C@@H]2C(=O)N3C(C(=O)O)=C(CSc4ccncc4)CS[C@H]23)cs1 (stereo partly drawn) [Example 16, (6R,7R)7-[(RS)2-(2-Aminothiazol-4-yl)-2-(1,5-dihydroxy-4-pyridone-2-carboxamido)acetamido]-3-(pyridine-4-yl)thiomethyl-ceph-3-em-4-carboxylic acid] | 6.25 µg/mL (≈ 9.89 µM) | 0.2 µg/mL (≈ 0.317 µM) | 1.56 µg/mL (≈ 2.47 µM) | 0.39 µg/mL (≈ 0.617 µM) | 6.25 µg/mL (≈ 9.89 µM) | 0.1 µg/mL (≈ 0.158 µM) | 0.1 µg/mL (≈ 0.158 µM) | 1.56 µg/mL (≈ 2.47 µM) | 3.13 µg/mL (≈ 4.96 µM) | 3.13 µg/mL (≈ 4.96 µM) | 0.78 µg/mL (≈ 1.23 µM) | < 0.025 µg/mL | 3.13 µg/mL (≈ 4.96 µM) | 0.39 µg/mL (≈ 0.617 µM) |  |
| Nc1nc(C(NC(=O)c2cc(=O)c(O)cn2O)C(=O)N[C@@H]2C(=O)N3C(C(=O)[O-])=C(CSc4cc[n+](CC(=O)O)c5c4CCC5)CS[C@H]23)cs1 (stereo partly drawn) [Example 17, (6R,7R)7-[(RS)2-(2-Aminothiazol-4-yl)-2-(1,5-dihydroxy-4-pyridone-2-carboxamido)acetamido]-3-(2,3-cyclopenteno-1-carboxylmethylpyridinium-4-yl)-thiomethyl-ceph-3-em-4-carboxylate] | 6.25 µg/mL (≈ 8.56 µM) | 0.1 µg/mL (≈ 0.137 µM) | 0.1 µg/mL (≈ 0.137 µM) | 0.2 µg/mL (≈ 0.274 µM) | 3.13 µg/mL (≈ 4.29 µM) | 0.1 µg/mL (≈ 0.137 µM) | < 0.025 µg/mL | 0.78 µg/mL (≈ 1.07 µM) | 3.13 µg/mL (≈ 4.29 µM) | 1.56 µg/mL (≈ 2.14 µM) | 0.78 µg/mL (≈ 1.07 µM) | 0.05 µg/mL (≈ 0.0685 µM) | 3.13 µg/mL (≈ 4.29 µM) | 0.2 µg/mL (≈ 0.274 µM) |  |
| Cn1c(SCC2=C(C(=O)O)N3C(=O)[C@@H](NC(=O)C(NC(=O)c4cc(=O)c(O)cn4O)c4csc(N)n4)[C@H]3SC2)nnc(O)c1=O (stereo partly drawn) [Example 22, (6R,7R)7-[(RS)2-(2-Aminothaizol-4-yl)-2-(1,5-dihydroxy-4-pyridone-2-carboxamido)acetamido]-3-(4,5-dihydro-4-methyl-5-oxo-6-hydroxy-1,2,4-triazin-3-yl)thiomethyl-ceph-3-em-4-carboxylic acid] | 1.56 µg/mL (≈ 2.3 µM) | 0.05 µg/mL (≈ 0.0736 µM) | 0.2 µg/mL (≈ 0.294 µM) | 0.1 µg/mL (≈ 0.147 µM) | 3.13 µg/mL (≈ 4.61 µM) | 0.1 µg/mL (≈ 0.147 µM) | 0.05 µg/mL (≈ 0.0736 µM) | 0.78 µg/mL (≈ 1.15 µM) | 3.13 µg/mL (≈ 4.61 µM) | 0.39 µg/mL (≈ 0.574 µM) | 0.39 µg/mL (≈ 0.574 µM) | 0.39 µg/mL (≈ 0.574 µM) | 3.13 µg/mL (≈ 4.61 µM) | 0.2 µg/mL (≈ 0.294 µM) |  |
| Nc1nc(C(NC(=O)c2cc(=O)c(O)cn2O)C(=O)N[C@@H]2C(=O)N3C(C(=O)O)=C(CSc4cnns4)CS[C@H]23)cs1 (stereo partly drawn) [Example 25, (6R,7R)7-[(RS)2-(2-Aminothiazol-4-yl)-2-(1,5-dihydroxy-4-pyridone-2-carboxamido)acetamido]-3-(1,2,3-thiadiazol-5-yl)thiomethyl-ceph-3-em-4-carboxylic acid] | 1.56 µg/mL (≈ 2.44 µM) | 0.05 µg/mL (≈ 0.0783 µM) | 3.13 µg/mL (≈ 4.9 µM) | 0.1 µg/mL (≈ 0.157 µM) | 3.13 µg/mL (≈ 4.9 µM) | 0.05 µg/mL (≈ 0.0783 µM) | 0.05 µg/mL (≈ 0.0783 µM) | 6.25 µg/mL (≈ 9.79 µM) | 3.13 µg/mL (≈ 4.9 µM) | 0.2 µg/mL (≈ 0.313 µM) | 0.78 µg/mL (≈ 1.22 µM) | 0.1 µg/mL (≈ 0.157 µM) | 6.25 µg/mL (≈ 9.79 µM) | 0.2 µg/mL (≈ 0.313 µM) |  |
| Nc1nc(C(NC(=O)c2cc(=O)c(O)cn2O)C(=O)N[C@@H]2C(=O)N3C(C(=O)O)=C(CSc4nc5ccccc5s4)CS[C@H]23)cs1 (stereo partly drawn) [Example 26, (6R,7R)7-[(RS)2-(2-Aminothiazol-4-yl)-2-(1,5-dihydroxy-4-pyridone-2-carboxamido)acetamido]-3-(benzothiazol-2-yl)thiomethyl-ceph-3-em-4-carboxylic acid] | 3.13 µg/mL (≈ 4.55 µM) | 0.05 µg/mL (≈ 0.0727 µM) | 3.13 µg/mL (≈ 4.55 µM) | 0.2 µg/mL (≈ 0.291 µM) | 3.13 µg/mL (≈ 4.55 µM) | 0.05 µg/mL (≈ 0.0727 µM) | 0.1 µg/mL (≈ 0.145 µM) | 1.56 µg/mL (≈ 2.27 µM) | 3.13 µg/mL (≈ 4.55 µM) | 0.2 µg/mL (≈ 0.291 µM) | 0.39 µg/mL (≈ 0.567 µM) | 0.2 µg/mL (≈ 0.291 µM) | 3.13 µg/mL (≈ 4.55 µM) | 0.78 µg/mL (≈ 1.13 µM) |  |
